Data as given in ChEMBL document CHEMBL5223090, “Annual review of lysine-specific demethylase 1 (LSD1/KDM1A) inhibitors in 2021” (Eur J Med Chem, 2022).

Legend:
A549 [1] = experiment: cells; details: Homo sapiens
MCF7 = experiment: cells; details: Homo sapiens
THP-1 = experiment: cells; details: Homo sapiens
NCI-H460 = experiment: cells; details: Homo sapiens
in vitro = details: human, THLE-2 cells
MGC-803 = experiment: cells; details: Homo sapiens
[2] = molecular target: T1, Lysine-specific histone demethylase 1A (Homo sapiens, UniProt O60341)
A549 [3] = test system: A549
Histone deacetylase 2 = Histone deacetylase 2 (Homo sapiens, UniProt Q92769); experiment: Inhibition of HDAC2 (unknown origin)
Chain of Histone deacetylase 2 (Q92769 whole entry): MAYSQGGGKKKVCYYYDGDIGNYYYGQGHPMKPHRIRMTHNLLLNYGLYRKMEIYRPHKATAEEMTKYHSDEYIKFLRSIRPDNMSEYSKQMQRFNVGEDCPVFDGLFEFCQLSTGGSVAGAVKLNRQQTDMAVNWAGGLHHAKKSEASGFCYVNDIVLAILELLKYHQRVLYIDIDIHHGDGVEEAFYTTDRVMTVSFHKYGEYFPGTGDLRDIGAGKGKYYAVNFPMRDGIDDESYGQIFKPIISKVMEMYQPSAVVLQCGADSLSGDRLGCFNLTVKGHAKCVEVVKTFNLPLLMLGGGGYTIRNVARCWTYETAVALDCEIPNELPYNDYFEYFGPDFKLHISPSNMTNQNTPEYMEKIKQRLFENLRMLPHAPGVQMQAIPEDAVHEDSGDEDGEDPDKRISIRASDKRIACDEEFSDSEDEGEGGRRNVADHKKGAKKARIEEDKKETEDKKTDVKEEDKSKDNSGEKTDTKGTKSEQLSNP

MDA-MB-231 = experiment: Antiproliferative activity against human MDA-MB-231 cells assessed as cell growth inhibition; format: functional, cell-based
HCT-116 = experiment: Antiproliferative activity against human HCT-116 cells assessed as cell growth inhibition; format: functional, cell-based
HepG2 = experiment: Antiproliferative activity against human HepG2 cells assessed as cell growth inhibition; format: functional, cell-based
SK-OV-3 = experiment: Antiproliferative activity against human SK-OV-3 cells assessed as cell growth inhibition; format: functional, cell-based
PC-3 = experiment: Antiproliferative activity against human PC-3 cells assessed as cell growth inhibition; format: functional, cell-based
Bel-7402 = experiment: cells; details: Homo sapiens
[4] = molecular target: T1, Lysine-specific histone demethylase 1A; experiment: Inhibition of LSD1 (unknown origin) at 0.4 uM relative to control
MAO-A = molecular target: T2, MAO-A (Homo sapiens, UniProt P21397); experiment: Inhibition of MAO-A (unknown origin) at 0.4 uM relative to control
T2 sequence (P21397 whole entry): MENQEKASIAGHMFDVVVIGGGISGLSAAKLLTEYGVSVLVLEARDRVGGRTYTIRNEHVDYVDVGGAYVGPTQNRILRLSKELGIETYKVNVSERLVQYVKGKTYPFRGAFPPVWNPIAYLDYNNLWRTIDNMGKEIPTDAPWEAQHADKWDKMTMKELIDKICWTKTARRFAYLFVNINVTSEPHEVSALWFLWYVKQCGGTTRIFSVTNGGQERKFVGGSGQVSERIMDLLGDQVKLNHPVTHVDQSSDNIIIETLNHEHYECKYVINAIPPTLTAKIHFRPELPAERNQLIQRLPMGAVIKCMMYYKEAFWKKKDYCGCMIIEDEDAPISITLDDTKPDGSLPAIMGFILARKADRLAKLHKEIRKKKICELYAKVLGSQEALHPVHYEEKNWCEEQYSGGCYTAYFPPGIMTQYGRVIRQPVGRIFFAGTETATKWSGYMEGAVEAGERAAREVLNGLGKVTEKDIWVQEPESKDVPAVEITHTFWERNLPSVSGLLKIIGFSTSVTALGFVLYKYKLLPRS

SGC-7901 = experiment: Antiproliferative activity against human SGC-7901 cells assessed as cell growth inhibition; format: functional, cell-based
[5] = Antiproliferative activity against human SGC7901/ADR cells assessed as cell growth inhibition; format: functional, cell-based; details: SGC-7901
MAO-B = molecular target: T3, MAO-B (Homo sapiens, UniProt P27338); experiment: Inhibition of MAO-B (unknown origin) at 0.4 uM relative to control
T3 sequence (P27338 whole entry): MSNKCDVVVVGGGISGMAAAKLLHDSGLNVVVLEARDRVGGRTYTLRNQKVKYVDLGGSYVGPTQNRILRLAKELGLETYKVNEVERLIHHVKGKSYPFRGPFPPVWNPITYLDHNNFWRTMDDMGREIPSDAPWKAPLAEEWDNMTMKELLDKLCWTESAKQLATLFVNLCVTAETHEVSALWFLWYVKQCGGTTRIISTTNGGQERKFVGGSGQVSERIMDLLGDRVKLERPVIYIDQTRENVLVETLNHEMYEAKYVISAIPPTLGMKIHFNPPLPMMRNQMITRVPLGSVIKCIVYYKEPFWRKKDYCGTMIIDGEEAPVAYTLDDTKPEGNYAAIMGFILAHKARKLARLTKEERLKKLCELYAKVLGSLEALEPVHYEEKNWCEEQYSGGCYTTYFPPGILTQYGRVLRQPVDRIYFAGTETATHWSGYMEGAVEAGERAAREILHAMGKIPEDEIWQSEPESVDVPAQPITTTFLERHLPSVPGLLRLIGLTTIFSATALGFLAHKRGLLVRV

With CNCCCNCc1coc2cc(-c3ccc(C)cc3)c(-c3ccc(C#N)cc3)cc12 the IC50 (A549 [1]) was 4.08 µM, the IC50 (MCF7) was 3.36 µM and the IC50 (THP-1) was 4.87 µM. It also gave an IC50 (NCI-H460) of 1.87 µM, an IC50 (in vitro) of 4.2 µM and an IC50 (MGC-803) of 6.47 µM.
Cn1c(C(=O)Nc2cccc3c2N(Cc2ccc(OC4CCNCC4)cc2)CCC3)cc2cc(F)ccc21 gave an IC50 [2] of 0.54 µM.
In the case of Oc1ccc(CC2NCCc3cc(O)c(O)cc32)cc1 (configuration not stated) [HIGENAMINE], the IC50 [2] is reported as 1.47 µM.
For COc1cc(Br)c(/C=C/c2ccc(C(=O)NO)cc2)cc1OC, the IC50 (THP-1) was 3.39 µM and the IC5 (A549 [3]) was 6.23 µM.
For N/C(=N\O)c1cccc(/C=C/c2ccnc(-c3cc(F)ccc3O)c2)c1, the IC50 (Histone deacetylase 2) was > 100 µM.
Work on O=C(CC(=O)c1ccc(C(F)(F)F)cc1)Nc1cccc2c1CCCN2Cc1ccc(OC2CCNCC2)cc1 yielded an IC50 (A549 [1]) of 8.49 µM and an IC50 (MCF7) of 0.35 µM.
With Nc1ccc(C(=O)/C=C/c2ccccc2F)cc1 the IC50 (MDA-MB-231) was 34.7 µM and the IC50 (MCF7) was 13.2 µM.
In the case of Cc1ccc(-c2cc(/C=C/c3ccc(C(=O)NO)cc3)ccn2)c(F)c1, the IC50 (Histone deacetylase 2) is reported as > 10 µM.
Work on O=C(c1ccc(OCCN2CCCCC2)cc1)c1c(-c2ccc(O)cc2)sc2cc(O)ccc12 [RALOXIFENE] yielded an IC50 [2] of 2.08 µM.
O=S1(=O)CCCCN(S(=O)(=O)c2ccc(-c3cnc(C4CC4)o3)cc2)c2ccccc21 showed an IC50 (HCT-116) of 0.263 µM, an IC50 (HepG2) of 2.17 µM and an IC50 (SK-OV-3) of 1.62 µM. The IC50 (PC-3) was 5.88 µM.
Work on COc1ccc(S(=O)(=O)N(CCSC(=S)N2CCN(C)CC2)c2cc(OC)c(OC)c(OC)c2)cc1 yielded an IC50 (Bel-7402) of 0.32 µM.
Molecule Cn1c(C(=O)Nc2cccc3c2CCCN3Cc2ccc(OC3CCNCC3)cc2[N+](=O)[O-])cc2sccc21 has an IC50 (A549 [1]) of 2.13 µM and an IC50 (MCF7) of 2.35 µM.
In the case of Oc1ccc(C2CNCCc3c2cc(O)c(O)c3Cl)cc1 (configuration not stated) [FENOLDOPAM], the IC50 [2] is reported as 0.89 µM.
In the case of COc1cc2c(c(O)c1OC)c(=O)c1ccccc1n2C [ARBORININE], the inhibition [4] is reported as 99.3%, the inhibition at 0.4 µM (MAO-A) is reported as 23.7% and the IC50 (SGC-7901) is reported as 1.96 µM. The IC50 [5] was 0.24 µM and the inhibition at 0.4 µM (MAO-B) was 31%.
Work on Cn1c(C(=O)CC(=O)Nc2cccc3c2CCCN3Cc2ccc(OC3CCNCC3)cc2)cc2ccccc21 yielded an IC50 (A549 [1]) of 7.61 µM and an IC50 (MCF7) of 7.02 µM.
COc1cc(F)c(/C=C/c2ccc(C(=O)NO)cc2)cc1OC showed an IC50 (A549 [1]) of 1.58 µM, an IC50 (MCF7) of 4960 µM and an IC50 (THP-1) of 2.15 µM.
Cn1c(C(=O)Nc2cccc3c2CCCN3Cc2ccc(OC3CCNCC3)cc2)cc2sccc21 showed an IC50 (A549 [1]) of 5.3 µM and an IC50 (MCF7) of 6.91 µM.
